Assay results as given in the METLIN SMRT retention time set (Domingo-Almenara et al. 2019).

Test: gradient 5% acetonitrile 3 min, to 50% in 2 min, to 85% in 15 min, held 3 min, 100 µL/min
Details: column: Zorbax Extend-C18 2.1 x 50 mm; eluents: water / acetonitrile, 0.1% formic acid
How it was run: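 The mobile phases were water and acetonitrile, each with 0.1% formic acid, pumped at 100 μL/min through a Zorbax Extend-C18 column (2.1 × 50 mm, 1.8 μm). Pure standards were injected as mixtures of ~100 molecules and detected by a quadrupole time-of-flight mass spectrometer in positive and negative ionization mode. Retention time came from computationally picked adduct peaks, each inspected by hand.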

| Structure (SMILES) | RP-LC retention time |
| --- | --- |
| CN(C)C(=O)c1csc(S(=O)(=O)N2CCC(C(=O)NCc3ccc(F)cc3)CC2)c1 | 725 s |
| COCCC1CCN(C(=O)CN(C)C(=O)c2cnccn2)CC1 | 580 s |
| Cc1c(-c2noc(-c3ccc4c(c3)OCO4)n2)nnn1Cc1ccc(F)cc1 | 999 s |
| CCc1nnc2nc(N3CCN(C(=O)c4cccc(N(C)C)c4)CC3)cc(C)n12 | 574 s |
| COc1ccc(-c2ncc3c(n2)CCN(C(=O)Nc2cccc(Cl)c2C)C3)cc1 | 1170 s |
| COc1ncccc1CNC(=O)c1cccs1 | 694 s |
| CCn1ccc(C(=O)N2CCCn3nc(-c4cccs4)cc3C2)n1 | 748 s |
| CCN(C(=O)C1CCN(S(=O)(=O)c2ccc3c(c2)NC(=O)CO3)CC1)c1ccc(OC)cc1 | 788 s |
| Cc1noc(C)c1CNC(=O)C(C)Oc1ccc(Cl)cc1 (configuration not stated) | 811 s |
| Cc1nnc2n1CCC(N(C)S(=O)(=O)c1ccccc1F)CC2 (configuration not stated) | 634 s |
| Cc1cc(C)nc(Nc2nc3ccccc3[nH]2)n1 | 615 s |
| O=C(c1cc(-c2ccccc2)n[nH]1)N1CC(c2nc(C3CC3)no2)C1 | 711 s |
| Cc1ccc(S(=O)(=O)Cc2noc(-c3ccc(Br)cc3)n2)cc1 | 1030 s |
| CCc1nccn1Cc1nc(-c2cccc(F)c2)no1 | 625 s |
| Cc1nc(C(=O)Nc2ccc(C)c(F)c2)c(C)o1 | 946 s |
| CN1c2cc(F)ccc2C(=O)NC12CCN(C(=O)c1cc(F)cc(F)c1)CC2 | 793 s |
| O=C1CCCC(=O)N1CCS(=O)(=O)NCC1(c2ccccc2)CCOCC1 | 678 s |
| CS(=O)(=O)N1CCCc2ccc(NC(=O)c3ccc4nsnc4c3)cc21 | 786 s |
| COc1ccc(NC(=O)Cn2c(C)cc(-c3nnc(-c4ccco4)o3)c2C)cc1Cl | 903 s |

| Structure (SMILES) | RP-LC retention time |
| --- | --- |
| CCC(C)NC(=O)N1CCN(c2cc(-c3ccc(OC)c(OC)c3)ncn2)CC1 (configuration not stated) | 621 s |
| Cc1ccc(C)c(NC(=O)Cn2nc3cc(-c4ccccc4)nc(C)n3c2=O)c1 | 961 s |
| O=C(C1CC(=O)N(c2ccc3c(c2)CCN3C(=O)C2CCC2)C1)N1CCCCC1 (configuration not stated) | 760 s |
| CC(=O)Nc1ccc(NC(=O)c2nn(-c3ccc(F)cc3)c3ccccc3c2=O)cc1 | 778 s |
| N#Cc1ccc(NC(=O)Cn2cccc(-c3nc(-c4ccc(F)cc4)no3)c2=O)cc1 | 857 s |
| COc1ccc(C(=O)CSc2nnc(NC(=O)CN(C)S(C)(=O)=O)s2)cc1 | 700 s |
| COc1ccc2c(c1)C1(CCN(S(=O)(=O)c3cccc(C#N)c3)C1)C(=O)N2C (configuration not stated) | 875 s |
| COCCCNC(=O)C1CCC(=O)N(c2ccc(OC)cc2)C1c1ccc(F)cc1 (configuration not stated) | 609 s |
| Cc1ccccc1Nc1c(-c2ccccc2)nc2ccc(Cl)cn12 | 869 s |
| CN(CC1CCOC1)C(=O)c1cc(Cl)ccc1F (configuration not stated) | 719 s |
| Cc1nc(C2CCOCC2)n(C2CCN(S(=O)(=O)c3ccc(Cl)cc3C)C2)n1 (configuration not stated) | 771 s |
| Cc1ccc(-c2coc(-c3cccc(NS(=O)(=O)c4cccc5nsnc45)c3)n2)cc1 | 1180 s |
| CCCN1C(=O)C(NC(=O)c2ccc(F)cc2)(C(F)(F)F)C2=C1CC(C)(C)CC2=O (configuration not stated) | 952 s |
| Cc1ccc(C)c2sc(OC3CCN(C(=O)c4ccc(S(C)(=O)=O)cc4)CC3)nc12 | 1000 s |
| O=C(COc1ccccc1-c1nnc(-c2ccccc2)o1)Nc1ccc2c(c1)OCO2 | 1100 s |
| CSc1ccc(CNC(=O)C2CCCN(C(=O)c3cc(C)cc(C)c3)C2)cc1 (configuration not stated) | 921 s |
| Cc1cc(F)ccc1NC(=O)C1CCCN(c2nc3c(s2)c(C)nn3-c2ccccc2)C1 (configuration not stated) | 1140 s |
| CCC(=O)N1CCc2cc(N3CC(C(=O)Nc4cccc(F)c4C)CC3=O)ccc21 (configuration not stated) | 801 s |
